ChEMBL document CHEMBL1152980, “Identification of enoxacin as an inhibitor of osteoclast formation and bone resorption by structure-based virtual screening” (J Med Chem, 2009)
pIC50: −log10 of the molar value. The source made the active and inactive calls. The calls are words filed in the database; no cut-off is given here.

What was measured:
[1] = system: Bone marrow cell; assay: Antiresorptive activity in 1,25-dihydroxyvitamin D3-stimulated Swiss Webster mouse bone marrow cells after 5 days; type: functional, cell-based
[2] = system: Bone marrow cell; assay: Antiresorptive activity in 1,25-dihydroxyvitamin D3-stimulated Swiss Webster mouse bone marrow cells assessed as reduction in resorptive area at 25 uM after 5 days; type: functional, cell-based
[3] = system: Bone marrow cell; assay: (§1) Antiresorptive activity against 1,25-dihydroxyvitamin D3-stimulated osteoclast formation in Swiss Webster mouse bone marrow cells assessed as reduction of tartrate-resistant acid phosphatase activity after 7 days; type: functional, cell-based
[4] = molecular target: V-type proton ATPase subunit B (Saccharomyces cerevisiae S288c) (UniProt P16140); assay: Inhibition of Saccharomyces cerevisiae V-ATPase subunit B expressed in Escherichia coli binding to rabbit muscle actin filament at 100 uM by pelleting assay; conditions: Muscle tissue
Chain of V-type proton ATPase subunit B (Saccharomyces cerevisiae S288c) (P16140 whole entry): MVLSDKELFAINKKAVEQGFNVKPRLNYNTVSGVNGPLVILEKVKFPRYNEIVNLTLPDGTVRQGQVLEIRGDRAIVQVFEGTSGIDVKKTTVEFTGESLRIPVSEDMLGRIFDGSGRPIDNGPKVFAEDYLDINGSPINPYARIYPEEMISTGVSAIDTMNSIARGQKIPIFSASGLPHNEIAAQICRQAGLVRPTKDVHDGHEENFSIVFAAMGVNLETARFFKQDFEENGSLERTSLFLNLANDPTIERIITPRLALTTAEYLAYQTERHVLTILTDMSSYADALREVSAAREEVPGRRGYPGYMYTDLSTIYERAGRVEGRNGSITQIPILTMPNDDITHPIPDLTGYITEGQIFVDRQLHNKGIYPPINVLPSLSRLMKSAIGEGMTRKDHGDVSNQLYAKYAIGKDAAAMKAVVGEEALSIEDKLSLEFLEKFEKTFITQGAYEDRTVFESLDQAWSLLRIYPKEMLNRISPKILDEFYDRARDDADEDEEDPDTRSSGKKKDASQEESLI

[5] = system: Osteoclast; assay: Antiresorptive activity in 1,25-dihydroxyvitamin D3-stimulated Swiss Webster mouse osteoclast assessed as blockade of ruffled membrane formation on bone slices at 1 uM after 3 days; type: functional, cell-based
[6] = system: Osteoclast; assay: Antiresorptive activity in 1,25-dihydroxyvitamin D3-stimulated Swiss Webster mouse osteoclast assessed as blockade of ruffled membrane formation on bone slices at 10 uM after 3 days; type: functional, cell-based
[7] = system: Osteoclast; assay: Antiresorptive activity in 1,25-dihydroxyvitamin D3-stimulated Swiss Webster mouse osteoclast assessed as blockade of ruffled membrane formation on bone slices at 100 uM after 3 days; type: functional, cell-based
[8] = system: Bone marrow cell; assay: Antiresorptive activity in 1,25-dihydroxyvitamin D3-stimulated Swiss Webster mouse bone marrow cells assessed as reduction in bone pit formation at 10 uM after 5 days; type: functional, cell-based
[9] = molecular target: V-type proton ATPase subunit B, brain isoform (Homo sapiens, UniProt P21281); assay: Inhibition of maltose binding protein-fused human V-ATPase subunit B2 binding to F-actin
Chain of V-type proton ATPase subunit B, brain isoform (P21281 whole entry, the tested form may be a part, canonical isoform): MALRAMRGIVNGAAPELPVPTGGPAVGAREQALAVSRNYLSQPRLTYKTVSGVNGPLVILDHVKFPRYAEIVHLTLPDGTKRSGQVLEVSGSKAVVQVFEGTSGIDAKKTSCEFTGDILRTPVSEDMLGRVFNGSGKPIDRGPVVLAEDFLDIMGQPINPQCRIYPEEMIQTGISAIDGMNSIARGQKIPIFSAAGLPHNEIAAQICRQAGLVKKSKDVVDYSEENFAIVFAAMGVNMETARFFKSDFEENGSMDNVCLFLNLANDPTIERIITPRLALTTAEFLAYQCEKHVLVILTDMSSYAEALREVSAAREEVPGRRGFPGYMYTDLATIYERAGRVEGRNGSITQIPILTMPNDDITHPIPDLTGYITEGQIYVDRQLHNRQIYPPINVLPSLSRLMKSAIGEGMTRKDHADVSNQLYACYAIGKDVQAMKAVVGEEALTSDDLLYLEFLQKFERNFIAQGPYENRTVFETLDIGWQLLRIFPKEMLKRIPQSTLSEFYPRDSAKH

[10] = system: Bone marrow cell; assay: Antiresorptive activity in 1,25-dihydroxyvitamin D3-stimulated Swiss Webster mouse bone marrow cells assessed as reduction in bone pit formation at 25 uM after 5 days; type: functional, cell-based
[11] = system: Bone marrow cell; assay: Antiresorptive activity in 1,25-dihydroxyvitamin D3-stimulated Swiss Webster mouse bone marrow cells at 100 uM after 5 days; type: functional, cell-based
[12] = Reduction in mouse MC3T3-E1 cell growth at 100 uM after 3 days; type: cell-based; conditions: mc3t3-e1, 72 h
[13] = Reduction in osteoblast formation from mouse MC3T3-E1 cells assessed as alkaline phosphatase activity at 100 uM after 3 days; type: cell-based; conditions: mc3t3-e1, 72 h
[14] = system: Osteoclast; assay: Antiresorptive activity in 1,25-dihydroxyvitamin D3-stimulated Swiss Webster mouse osteoclast assessed as blockade of actin ring formation on bone slices at 100 uM after 3 days; type: functional, cell-based
[15] = system: Osteoclast; assay: Antiresorptive activity in 1,25-dihydroxyvitamin D3-stimulated Swiss Webster mouse osteoclast assessed as blockade of actin ring formation on bone slices at 1 uM after 3 days; type: functional, cell-based
[16] = system: Osteoclast; assay: Antiresorptive activity in 1,25-dihydroxyvitamin D3-stimulated Swiss Webster mouse osteoclast assessed as blockade of actin ring formation on bone slices at 10 uM after 3 days; type: functional, cell-based
[17] = Cytotoxicity against mouse MC3T3-E1 cells assessed as change in morphology at 100 uM after 3 days; type: cell-based; conditions: mc3t3-e1, 72 h
[18] = as §1; type: functional, cell-based; conditions: Bone marrow cell, 168 h

Row | inhibition [4] | pIC50 [9] | pIC50 [18] | Compound | Activity [1] | Activity [2] | Activity [3] | Activity [5] | Activity [6] | Activity [7] | Activity [8] | Activity [10] | Activity [11] | Activity [12] | Activity [13] | Activity [14] | Activity [15] | Activity [16] | Activity [17]
1 | Active | 5.00 |  | CCn1cc(C(=O)O)c(=O)c2cc(F)c(N3CCNCC3)nc21 [ENOXACIN] | Dose-dependent effect | Active | Dose-dependent effect | inactive | Active | Active | Active | Active | Active | Toxic | Toxic | Active | inactive | Active | Toxic
2 |  |  | < 4.30 | CCn1cc(C(=O)O)c(=O)c2cc(F)c(N3CCN(C)CC3)cc21 [PEFLOXACIN] |  |  |  |  |  |  |  |  |  |  |  |  |  |  | 
